GI50 and TGI data for ten compounds are collected here from PubChem BioAssay (NCI).

Test systems include M14 melanoma; MDA-MB-231 breast; RPMI-8226 leukemia; HT29 colon; MCF7 breast; SNB-19 CNS; HS 578T breast; SK-OV-3 ovarian; UACC-62 melanoma; SN12C renal.
What all share (assay): NCI tumour cell line growth inhibition, 48 h

Each structure is given as a SMILES string.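 All cell lines were grown in 96-well plates and treated with compound for 48 hours. Here, GI50 denotes the concentration required for 50% inhibition of growth. At the TGI there is no net growth.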

For `COC(=O)[C@]12CC[C@@H](C)[C@H](C)[C@@H]1C1=CC[C@@H]3[C@@]4(C)C=C(O)C(=O)[C@@]5(C)COC(=C54)C[C@@]3(C)[C@]1(C)CC2`, the GI50 was 11.7 µM in the test on M14 melanoma; 11.9 µM in the test with MDA-MB-231 breast; 5.57 µM in the test with RPMI-8226 leukemia; 10.5 µM in the test on HT29 colon; 3.45 µM in the test on MCF7 breast; 15.8 µM in the test with SNB-19 CNS. Also, the GI50 in the test on HS 578T breast was 16.1 µM; in the test on SK-OV-3 ovarian it was 14.6 µM. In addition, the TGI was 27.3 µM in the test on M14 melanoma; 29.7 µM in the test on MDA-MB-231 breast; 29.7 µM in the test with RPMI-8226 leukemia; 25.9 µM in the test on HT29 colon; 12.3 µM with MCF7 breast; 37.9 µM in the test on SNB-19 CNS. Moreover, the TGI in the test with HS 578T breast stood at 49.9 µM; with SK-OV-3 ovarian it was 32.5 µM.
With `COc1ccc(-c2ccc(-c3ccc(-c4ccc(C(=N)N)cc4)s3)s2)cc1OC`, the GI50 was 3.16 µM with M14 melanoma; 18.4 µM in the test on UACC-62 melanoma; 3.6 µM in the test on SN12C renal; 2.86 µM in the test with RPMI-8226 leukemia; 0.39 µM with MCF7 breast; 3.01 µM in the test with SNB-19 CNS. Moreover, the GI50 is 21.2 µM in the test on HS 578T breast and 14.5 µM in the test on SK-OV-3 ovarian. Besides, the TGI worked out at 11.3 µM in the test on M14 melanoma; 48 µM with UACC-62 melanoma; 21.8 µM with SN12C renal; 13.4 µM in the test on RPMI-8226 leukemia; 2.1 µM in the test on MCF7 breast; 16.6 µM with SNB-19 CNS. Also, the TGI worked out at 48.1 µM with HS 578T breast and 37.3 µM in the test on SK-OV-3 ovarian.
Turning to `CN(C)C(=O)c1cc2cnc(Nc3ccc(-c4csc5c(=O)cc(N6CCOCC6)oc45)cc3)nc2n1C1CCCC1`, the GI50 in the test on M14 melanoma is 0.184 µM; in the test on UACC-62 melanoma it was 0.129 µM; in the test with SN12C renal it was 0.21 µM; in the test with RPMI-8226 leukemia, 0.142 µM; in the test on HT29 colon, 0.27 µM; with MCF7 breast, 0.0881 µM. The GI50 in the test with SNB-19 CNS is 0.217 µM; with HS 578T breast, 0.134 µM; with SK-OV-3 ovarian, 0.478 µM. Moreover, the TGI in the test on M14 melanoma was 0.601 µM; in the test on UACC-62 melanoma, 0.367 µM; in the test on SN12C renal it was 14.6 µM; in the test with RPMI-8226 leukemia, 0.533 µM; in the test on HT29 colon, more than 100 µM; with MCF7 breast, 1.01 µM. Besides, the TGI in the test on SNB-19 CNS was more than 28.5 µM; in the test with HS 578T breast, 0.648 µM; in the test on SK-OV-3 ovarian, 2.88 µM.
Regarding `COc1cccc(/C=C/c2cnc3ccccc3n2)c1OC`, the TGI was more than 100 µM in the test with M14 melanoma; 91.2 µM in the test with UACC-62 melanoma; more than 100 µM in the test on MDA-MB-231 breast; more than 100 µM in the test with SN12C renal; more than 100 µM with RPMI-8226 leukemia; 98.1 µM in the test on HT29 colon. Also, the results for the TGI in the test with MCF7 breast, in the test with HS 578T breast and with SK-OV-3 ovarian were more than 100 µM, 68.5 µM and more than 100 µM, respectively.
With `O=c1cc(-c2ccccc2)[nH]n1-c1nc2ccccc2[nH]1`, the GI50 with M14 melanoma was 2.71 µM; in the test with UACC-62 melanoma, 3.1 µM; with MDA-MB-231 breast it was 6.92 µM; in the test on SN12C renal, 6.84 µM; in the test with RPMI-8226 leukemia, 3.59 µM; with MCF7 breast, 3.89 µM. Moreover, the GI50 in the test with SNB-19 CNS was 4.89 µM; with HS 578T breast it was 7.47 µM; in the test on SK-OV-3 ovarian, 8.58 µM. Besides, the TGI in the test on M14 melanoma is more than 100 µM; with UACC-62 melanoma it was 13.8 µM; in the test on MDA-MB-231 breast it was 93.6 µM; in the test with SN12C renal, more than 100 µM; with RPMI-8226 leukemia, 52.4 µM; with MCF7 breast it was more than 100 µM. The TGI in the test on SNB-19 CNS, in the test on HS 578T breast and with SK-OV-3 ovarian was more than 100 µM throughout.
Take `O=C(Nc1ccccc1O)c1ccc(Oc2cccc(C(=O)Nc3ccccc3O)c2)cc1`: the GI50 was 1.22 µM with UACC-62 melanoma; 2.22 µM in the test with MDA-MB-231 breast; 2.84 µM with SN12C renal; 2.84 µM in the test with RPMI-8226 leukemia; 4.93 µM with HT29 colon; 2.57 µM in the test with MCF7 breast. Also, the GI50 in the test on SNB-19 CNS was 2.08 µM; in the test on HS 578T breast, 2.05 µM; in the test with SK-OV-3 ovarian, 4.42 µM. Further, the TGI with UACC-62 melanoma was 5.1 µM; in the test on MDA-MB-231 breast it was 11.8 µM; with SN12C renal, 17.9 µM; in the test on RPMI-8226 leukemia it was 8.78 µM; with HT29 colon it was 16.9 µM; in the test with MCF7 breast, 11.5 µM. Also, the values for the TGI in the test with SNB-19 CNS, in the test on HS 578T breast and with SK-OV-3 ovarian were 14.4 µM, 12.2 µM and 17.2 µM, respectively.
As to `Cc1cc(=O)oc2cc(OCc3c(F)cccc3Cl)ccc12`, the TGI was more than 100 µM in the test with M14 melanoma; 35 µM in the test with UACC-62 melanoma; more than 100 µM in the test with MDA-MB-231 breast; more than 100 µM in the test with SN12C renal; more than 100 µM in the test with MCF7 breast; more than 100 µM with SNB-19 CNS. The compound further had a TGI in the test on HS 578T breast of 99.1 µM.
For the compound `Cc1ccc(-c2cc(C3=CC(=O)C=CC3=O)n(-c3ccc(S(N)(=O)=O)cc3)n2)cc1`, the GI50 with M14 melanoma is 31.8 µM; in the test with UACC-62 melanoma, 39.5 µM; in the test with MDA-MB-231 breast it was 20.6 µM; in the test with SN12C renal, 58.7 µM; with RPMI-8226 leukemia it was 6.17 µM; in the test with HT29 colon it was 56.4 µM. Moreover, the GI50 in the test with MCF7 breast is 53.1 µM; in the test with SNB-19 CNS it was 63.7 µM; in the test with HS 578T breast it was 64.8 µM. The TGI in the test on M14 melanoma is 80.9 µM; in the test on UACC-62 melanoma, more than 100 µM; in the test with MDA-MB-231 breast, 72.8 µM; in the test with SN12C renal, more than 100 µM; in the test on RPMI-8226 leukemia it was 70.2 µM; in the test on HT29 colon, more than 100 µM. In addition, the TGI in the test on MCF7 breast, with SNB-19 CNS and in the test with HS 578T breast was more than 100 µM in each case.
Consider `COc1ccc(/C=C\c2cc(OC)c(OC)c(OC)c2)cc1OC(=O)CCC(=O)O`, for which the TGI in the test with SN12C renal is more than 100 µM; in the test with RPMI-8226 leukemia, more than 100 µM; with HT29 colon, 12.2 µM; in the test on MCF7 breast, more than 100 µM; in the test on SNB-19 CNS, more than 100 µM; with HS 578T breast, more than 100 µM. Further, in the test on SK-OV-3 ovarian, the TGI is more than 100 µM. The GI50 with SK-OV-3 ovarian is 0.0442 µM.
With `COc1cc(-c2nc3sc4c(c3c(=O)[nH]2)CCCCCC4)cc(OC)c1OC`, the GI50 is 0.831 µM with M14 melanoma; 0.743 µM in the test with UACC-62 melanoma; 1.07 µM with MDA-MB-231 breast; 2.14 µM in the test on SN12C renal; 1.19 µM in the test with RPMI-8226 leukemia; 0.903 µM in the test with MCF7 breast. Moreover, the results for the GI50 with SNB-19 CNS, in the test with HS 578T breast and in the test on SK-OV-3 ovarian were 1.56 µM, 0.922 µM and 0.89 µM, respectively. Further, the TGI was more than 33.2 µM in the test on M14 melanoma; 30.3 µM in the test with UACC-62 melanoma; 29.5 µM with MDA-MB-231 breast; more than 33.2 µM in the test on SN12C renal; 12.6 µM in the test on RPMI-8226 leukemia; more than 33.2 µM in the test on MCF7 breast. Moreover, the TGI in the test with SNB-19 CNS is more than 33.2 µM; with HS 578T breast, 9.76 µM; with SK-OV-3 ovarian it was 16.4 µM.
